# Measurements as given in patent publication US20230157996A1, “SMALL-MOLECULE INHIBITOR TARGETING EB VIRUS NUCLEAR ANTIGEN PROTEIN, PREPARATION METHOD AND USE THEREOF” (priority 2020, published 2023).
# System: C666-1 cells
# Assay: C666-1 cell viability single concentration (50 μM) inhibition rate (Resazurin)
# Format: cell-based
# Details: 50 μM compound, 72 hours, C666-1 cells
# Outline: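 Resazurin fluorescence (560/590 nm, 3 h development) gave the proliferation inhibition rate, normalised to DMSO-treated and cell-free blank wells. Compound was tested at a single 50 μmol/L final concentration on C666-1 cells for 72 h at 37° C, with duplicate wells, after 24 h seeding.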
row,Compound,"C666-1 cell viability single concentration (50 μM) inhibition rate, Ratio* (Inh %)"
1,"COC(=O)c1cccc(N2CC(Oc3ccccc3)C2)c1-n1cccc1 [Example 257, Methyl 3-((3-phenoxy)azetidin-1-yl)-2-(1H-pyrrol-1-yl)benzoate]",++ (10%-30% ++)

# Same assay, conditions: Homo sapiens, C6661, 72 h, 50 μM compound, 72 hours, C666-1 cells; read-out: C666-1 cell viability single concentration (50 μM) inhibition rate, Ratio* (Inh %)
row,Compound,inhibition at 50 µM [%]
1,"COc1cc(OC2CN(c3cccc(C(=O)O)c3-n3cccc3)C2)ccc1OCCNC(C)=O [Example 221, 3-(3-(4-(2-acetylaminoethoxy)-3-methoxyphenoxy)azetidin-1-yl)-2-(1H-pyrrol-1-yl)benzoic acid]",< 10
2,"COC(=O)c1cccc(N2CC(Oc3cccc(Oc4ccccc4)c3)C2)c1-n1cccc1 [Example 222, Methyl 3-(3-(3-phenoxyphenoxy)azetidin-1-yl)-2-(1H-pyrrol-1-yl)benzoate]",< 10
3,"O=C(O)c1cccc(N2CC(Oc3cccc(Oc4ccccc4)c3)C2)c1-n1cccc1 [Example 223, 3-(3-(3-phenoxyphenoxy)azetidin-1-yl)-2-(1H-pyrrol-1-yl)benzoic acid]",< 10
4,"COCCOc1ccc(OC2CN(c3cccc(C(=O)OC)c3-n3cccc3)C2)cc1 [Example 224, Methyl 3-(3-(4-(2-methoxyethoxy)phenoxy)azetidin-1-yl)-2-(1H-pyrrol-1-yl)benzoate]",< 10
5,"COCCOc1ccc(OC2CN(c3cccc(C(=O)O)c3-n3cccc3)C2)cc1 [Example 225, 3-(3-(4-(2-methoxyethoxy)phenoxy)azetidin-1-yl)-2-(1H-pyrrol-1-yl)benzoic acid]",10 to 30
6,"COC(=O)c1cccc(N2CC(Oc3ccc(NC(=S)Nc4ccc(Cl)cc4)cc3)C2)c1-n1cccc1 [Example 226, Methyl 3-(3-(4-(3-(4-chlorophenyl)thioureido)phenoxy)azetidin-1-yl)-2-(1H-pyrrol-1-yl)benzoate]",10 to 30
7,"COC(=O)c1cccc(N2CC(Oc3ccc(NC(=S)Nc4cccc(Cl)c4)cc3)C2)c1-n1cccc1 [Example 227, Methyl 3-(3-(4-(3-(3-chlorophenyl)thioureido)phenoxy)azetidin-1-yl)-2-(1H-pyrrol-1-yl)benzoate]",10 to 30
8,"COC(=O)c1cccc(N2CC(Oc3ccc(NC(=S)Nc4cccc(C#N)c4)cc3)C2)c1-n1cccc1 [Example 228, Methyl 3-(3-(4-(3-(3-cyanophenyl)thioureido)phenoxy)azetidin-1-yl)-2-(1H-pyrrol-1-yl)benzoate]",> 50
9,"COC(=O)c1cccc(N2CC(Oc3ccc(NC(=O)Nc4ccc(C(F)(F)F)cc4)cc3)C2)c1-n1cccc1 [Example 229, Methyl 3-(3-(4-(3-(4-(trifluoromethyl)phenyl)ureido)phenoxy)azetidin-1-yl)-2-(1H-pyrrol-1-yl)benzoate]",> 50
10,"O=C(Nc1ccc(OC2CN(c3cccc(C(=O)O)c3-n3cccc3)C2)cc1)Nc1ccc(C(F)(F)F)cc1 [Example 230, 3-(3-(4-(3-(4-(trifluoromethyl)phenyl)ureido)phenoxy)azetidin-1-yl)-2-(1H-pyrrol-1-yl)benzoic acid]",10 to 30
11,"O=C(NCc1cccs1)c1cccc(N2CC(Oc3ccc(CO)cc3)C2)c1-n1cccc1 [Example 231, N-(thiophen-2-yl-methyl)-3-(3-(4-(hydroxymethyl)phenoxy)azetidin-1-yl)-2-(1H-pyrrol-1-yl)benzamide]",10 to 30
12,"CCOCc1ccc(OC2CN(c3cccc(C(=O)OCC)c3-n3cccc3)C2)cc1 [Example 232, Ethyl 3-(3-(4-(ethoxymethyl)phenoxy)azetidin-1-yl)-2-(1H-pyrrol-1-yl)benzoate]",< 10
13,"CCOCc1ccc(OC2CN(c3cccc(C(=O)O)c3-n3cccc3)C2)cc1 [Example 233, 3-(3-(4-(ethoxymethyl)phenoxy)azetidin-1-yl)-2-(1H-pyrrol-1-yl)benzoic acid]",< 10
14,"COC(=O)c1cccc(N2CC(Oc3ccc(CN4CCOCC4)cc3)C2)c1-n1cccc1 [Example 235, Methyl 3-(3-(4-(morpholinylmethyl)phenoxy)azetidin-1-yl)-2-(1H-pyrrol-1-yl)benzoate]",30 to 50
15,"COC(=O)c1cccc(N2CC(Oc3ccc(COC(=S)Nc4ccc(Cl)cc4)cc3)C2)c1-n1cccc1 [Example 236, Methyl 3-(3-(4-((((4-chlorophenyl)thiocarbamoyl)oxy)methyl)phenoxy)azetidin-1-yl)-2-(1H-pyrrol-1-yl)benzoate]",10 to 30
16,O=C(Nc1ccc(Cl)cc1)OCc1ccc(OC2CN(c3cccc(C(=O)O)c3-n3cccc3)C2)cc1 [Example 237],< 10
17,CCNC(=S)OCc1ccc(OC2CN(c3cccc(C(=O)OC)c3-n3cccc3)C2)cc1 [Example 238],10 to 30
18,CCNC(=S)OCc1ccc(OC2CN(c3cccc(C(=O)O)c3-n3cccc3)C2)cc1 [Example 239],< 10
19,"COC(=O)c1cccc(N2CC(Oc3ccc(COc4ccc(Cl)cc4)cc3)C2)c1-n1cccc1 [Example 240, Methyl 3-(3-(4-((4-chlorophenoxy)methyl)phenoxy)azetidin-1-yl)-2-(1H-pyrrol-1-yl)benzoate]",< 10

row,Compound,inhibition at 50 µM [%]
1,"O=C(O)c1cccc(N2CC(Oc3ccc(COc4ccc(Cl)cc4)cc3)C2)c1-n1cccc1 [Example 241, 3-(3-(4-((4-chlorophenoxy)methyl)phenoxy)azetidin-1-yl)-2-(1H-pyrrol-1-yl)benzoic acid]",< 10
2,"COC(=O)c1cccc(N2CC(Oc3ccc(CNC(=O)NC4CC4)cc3)C2)c1-n1cccc1 [Example 242, Methyl 3-(3-(4-((3-cyclopropylureido)methyl)phenoxy)azetidin-1-yl)-2-(1H-pyrrol-1-yl)benzoate]",10 to 30
3,"COC(=O)c1cccc(N2CC(Oc3ccc(COc4cccnc4)cc3)C2)c1-n1cccc1 [Example 243, Methyl 3-(3-(4-((pyridin-3-yl-oxy)methyl)phenoxy)azetidin-1-yl)-2-(1H-pyrrol-1-yl)benzoate]",> 50
4,"O=C(O)c1cccc(N2CC(Oc3ccc(COc4cccnc4)cc3)C2)c1-n1cccc1 [Example 244, 3-(3-(4-((pyridin-3-yl-oxy)methyl)phenoxy)azetidin-1-yl)-2-(1H-pyrrol-1-yl)benzoic acid]",30 to 50
5,"COC(=O)c1cccc(N2CC(Oc3ccc(COc4ccc(F)cc4)cc3)C2)c1-n1cccc1 [Example 245, Methyl 3-(3-(4-((4-fluorophenoxy)methyl)phenoxy)azetidin-1-yl)-2-(1H-pyrrol-1-yl)benzoate]",< 10
6,"O=C(O)c1cccc(N2CC(Oc3ccc(COc4ccc(F)cc4)cc3)C2)c1-n1cccc1 [Example 246, 3-(3-(4-((4-fluorophenoxy)methyl)phenoxy)azetidin-1-yl)-2-(1H-pyrrol-1-yl)benzoic acid]",< 10
7,"COC(=O)c1cccc(N2CC(Oc3ccc(COc4cccc(F)c4)cc3)C2)c1-n1cccc1 [Example 247, Methyl 3-(3-(4-((3-fluorophenoxy)methyl)phenoxy)azetidin-1-yl)-2-(1H-pyrrol-1-yl)benzoate]",10 to 30
8,"O=C(O)c1cccc(N2CC(Oc3ccc(COc4cccc(F)c4)cc3)C2)c1-n1cccc1 [Example 248, 3-(3-(4-((3-fluorophenoxy)methyl)phenoxy)azetidin-1-yl)-2-(1H-pyrrol-1-yl)benzoic acid]",< 10
9,"COC(=O)c1cccc(N2CC(Oc3ccc(COc4cccc(C(F)(F)F)c4)cc3)C2)c1-n1cccc1 [Example 249, Methyl 3-(3-(4-((3-(trifluoromethyl)phenoxy)methyl)phenoxy)azetidin-1-yl)-2-(1H-pyrrol-1-yl)benzoate]",< 10
10,"O=C(O)c1cccc(N2CC(Oc3ccc(COc4cccc(C(F)(F)F)c4)cc3)C2)c1-n1cccc1 [Example 250, 3-(3-(4-((3-(trifluoromethyl)phenoxy)methyl)phenoxy)azetidin-1-yl)-2-(1H-pyrrol-1-yl)benzoic acid]",10 to 30
11,"COC(=O)c1cccc(N2CC(Oc3ccc(CO)c(C)c3)C2)c1-n1cccc1 [Example 251, Methyl 3-(3-(4-(hydroxymethyl)-3-methylphenoxy)azetidin-1-yl)-2-(1H-pyrrol-1-yl)benzoate]",> 50
12,"Cc1cc(OC2CN(c3cccc(C(=O)O)c3-n3cccc3)C2)ccc1CO [Example 252, 3-(3-(4-(hydroxymethyl)-3-methylphenoxy)azetidin-1-yl)-2-(1H-pyrrol-1-yl)benzoic acid]",< 10
13,"COC(=O)c1cccc(N2CC(Oc3ccc(N)cc3)C2)c1-n1cccc1 [Example 253, Methyl 3-(3-(4-aminophenoxy)azetidin-1-yl)-2-(1H-pyrrol-1-yl)benzoate]",10 to 30
14,"Nc1ccc(OC2CN(c3cccc(C(=O)O)c3-n3cccc3)C2)cc1 [Example 254, 3-(3-(4-aminophenoxy)azetidin-1-yl)-2-(1H-pyrrol-1-yl)benzoic acid]",< 10
15,"COC(=O)c1cccc(N2CC(Oc3ccccc3N)C2)c1-n1cccc1 [Example 255, Methyl 3-(3-(2-aminophenoxy)azetidin-1-yl)-2-(1H-pyrrol-1-yl)benzoate]",> 50
16,"Nc1ccccc1OC1CN(c2cccc(C(=O)O)c2-n2cccc2)C1 [Example 256, 3-(3-(2-aminophenoxy)azetidin-1-yl)-2-(1H-pyrrol-1-yl)benzoic acid]",> 50
17,"COC(=O)c1cccc(N2CC(Oc3cccnc3)C2)c1-n1cccc1 [Example 259, Methyl 3-(3-(pyridin-3-yloxy)azetidin-1-yl)-2-(1H-pyrrol-1-yl)benzoate]",10 to 30
18,"O=C(O)c1cccc(N2CC(Oc3cccnc3)C2)c1-n1cccc1 [Example 260, 3-(3-(pyridin-3-yloxy)azetidin-1-yl)-2-(1H-pyrrol-1-yl)benzoic acid]",< 10
19,"COC(=O)c1cccc(N2CC(Oc3ccc(-c4csc(NS(C)(=O)=O)n4)cc3)C2)c1-n1cccc1 [Example 261, Methyl 3-(3-(4-(2-(methylsulfonamido)thiazol-4-yl)phenoxy)azetidin-1-yl)-2-(1H-pyrrol-1-yl)benzoate]",< 10
